Read-outs that look alike come from different tables or passages of the source.
Columns and labels:
[1] = biological target: T1, MT-1 receptor (Homo sapiens, UniProt P48039); test: 125I-melatonin binding in membranes of CHP-K1 cells, MT-1; conditions: for inhibition at 10 µM: read-out: MT-1 receptor binding % inhibition by 10 μM
T1 construct: expressed in transfected cells; host or cells: CHP-K1 (Chinese hamster ovary) cells (so in the source)
Procedure: (§1) Aliquots of suspended membranes of human recombinant CHP-K1 (Chinese hamster ovary) cells stably expressing human melatonin-1 or melatonin-2 (MT-1 or MT-2) receptors or of hamster brain (MT-3) were incubated at 25° C. with 0.05 nM ^125I-melatonin in buffer (25 mM HEPES, pH 7.4, 5 mM MgCl2, 1 mM CaCl2, 0.5% BSA) or with 0.1 nM for MT-3 alone or in the presence of 1 nM, 10 nM, 0.1 μM, 1 μM and 10 μM of test substances N-[2-(5-methoxy-indol-3-yl)-ethyl]-commenamide, N-[2-(5-methoxy-indol-3-yl)-ethyl]-comanilamide, N-[2-(5-methoxy-indol-3-yl)-ethyl]-coumalylamide, N-[2-(5-methoxy-indol-3-yl)-ethyl]-2-methoxy-commenamide, N-[2-(5-methoxy-indol-3-yl)-ethyl]-chelidonamide, O-[2-(5-methoxy-indol-3-yl)-ethyl]-comenic ester, N-[2-(5-methoxy-indol-3-yl)-ethyl]-2-Pyrone-6-carboxamide and N-[2-(2-bromo-5-methoxy-indol-3-yl)-ethyl]-coumalylamide for 3 hours for MT-1, 4 hours for MT-2 and 30 min for MT-3. The binding reaction was terminated and the membranes were washed with 4 ml of ice-cold HEPES buffer by vacuum filtration. Membranes were then collected, and the filters containing the bound ^125I-melatonin were assayed for the amount of radioactivity in a […]. Non-specific binding was evaluated using a reaction with 1 μM 6-chloromelatonin (MT-1 and MT-2) or 30 μM melatonin (MT-3).

[2] = biological target: T2, MT-3 receptor (Mesocricetus auratus, UniProt A0ABM2YAB8); test: 125I-melatonin binding in hamster brain membranes, MT-3; conditions: for inhibition at 10 µM: read-out: MT-3 receptor binding % inhibition by 10 μM
T2 construct: from tissue; host or cells: hamster brain membranes
T2 sequence (A0ABM2YAB8 1-231): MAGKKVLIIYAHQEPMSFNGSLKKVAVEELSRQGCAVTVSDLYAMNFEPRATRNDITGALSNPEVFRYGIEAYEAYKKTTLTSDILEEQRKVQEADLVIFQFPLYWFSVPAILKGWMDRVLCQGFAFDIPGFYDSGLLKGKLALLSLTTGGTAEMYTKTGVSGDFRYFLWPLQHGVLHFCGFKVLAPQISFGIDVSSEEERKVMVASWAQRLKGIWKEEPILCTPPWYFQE
Procedure: as §1

[3] = biological target: T3, 5-HT1A receptor (Homo sapiens, UniProt P08908); test: Serotonin receptor binding, [3H] 8-OH-DPAT, CHO-K1 membranes
T3 construct: expressed in transfected cells; host or cells: CHO-K1
T3 sequence (P08908 1-422): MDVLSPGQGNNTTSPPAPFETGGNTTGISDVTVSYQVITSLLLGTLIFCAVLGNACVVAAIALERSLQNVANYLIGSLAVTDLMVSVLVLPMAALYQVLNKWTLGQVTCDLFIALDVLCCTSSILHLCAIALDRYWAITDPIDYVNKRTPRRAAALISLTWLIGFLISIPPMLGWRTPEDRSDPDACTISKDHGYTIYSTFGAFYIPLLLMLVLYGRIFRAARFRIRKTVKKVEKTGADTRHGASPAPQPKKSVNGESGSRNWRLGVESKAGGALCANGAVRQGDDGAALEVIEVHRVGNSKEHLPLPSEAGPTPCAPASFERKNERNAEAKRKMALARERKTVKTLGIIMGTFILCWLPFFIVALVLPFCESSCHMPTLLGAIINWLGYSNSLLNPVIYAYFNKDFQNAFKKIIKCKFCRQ
Procedure: (§2) Aliquots of suspended membranes of human recombinant CHO-K1 cells stably expressing human 5-HT1A, 5-HT2A, 5-HT1B, 5-HT2B, 5-HT2C, 5-HT4, 5-HT6 or 5-HT7 receptors were pre-incubated at 25° C. with 1.5 nM [^3H] 8-OH-DPAT (5-HT1A), 1.5 nM [^3H] Ketanserin (5-HT2A), 0.01 nM [^125I] Cyanopindolol (5-HT1B), 1 nM [^3H] Mesulergine (5-HT2c), 0.7 nM [^3H] GR-113808 (5-HT4) or at 37° C. 1.2 nM [^3H] LSD (5-HT2B, 5-HT6 and 5-HT7) in buffer (50 mM Tris-HCl, pH 7.7) alone or in the presence of 1 nM, 10 nM, 0.1 μM, 1 μM, and 10 μM of N-[2-(5-methoxy-indol-3-yl)-ethyl]-commenamide, N-[2-(5-methoxy-indol-3-yl)-ethyl]-coumalylamide, N-[2-(5-methoxy-indol-3-yl)-ethyl]-comanilamide, N-[2-(5-methoxy-indol-3-yl)-ethyl]-2-methoxy-commenamide or N-[2-(5-methoxy-indol-3-yl)-ethyl]-chelidonamide for 60 minutes. The binding reaction was terminated and washed with 4 ml ice-cold 50 mM Tris-HCl buffer by vacuum filtration. Membranes were then collected, and the filters containing the bound ligands were assayed for the amount of radioactivity in a b-counter. Non-specific binding was evaluated using a reaction with 10 μM metergoline (5-HT1A), 1 μM mianserin (5-HT2A and 5-HT2c) or 10 μM serotonin (5-HT1B, 5-HT2B, 5-HT4, 5-HT6 and 5-HT7).

[4] = biological target: T4, 5-HT1B receptor (Homo sapiens, UniProt P28222); test: Serotonin receptor binding, [125I] Cyanopindolol, CHO-K1 membranes
T4 construct: expressed in transfected cells; host or cells: CHO-K1
Procedure: as §2

[5] = test system: CD1 mice; test: Potentiation of hexobarbital-Na sleep time in mice; assay type: in vivo; conditions: for effect on hexobarbital-Na narcosis time: 100 mg/kg i.p.; for Changes (%) vs. Vehicle (sleep time) / Mean Sleep Time-Treatment (min) ± SE: 100 mg/kg i.p. 15 min before 50 mg/kg hexobarbital-Na i.v.; for Mean Sleep Time-Treatment (min) ± SE: loss to recovery of righting reflex
Procedure: CD1 mice were divided randomly into groups of seven mice each. The mice in each group were administered intraperitoneally a dose of one of the following: 100 mg/kg of one of test substances O-[2-(5-methoxy-indol-3-yl)-ethyl]-comenic ester, N-[2-(5-methoxyindol-3-yl)-ethyl]-commenamide, N-[2-(5-methoxy-indol-3-yl)-ethyl]-coumalylamide, N-[2-(5-methoxy-indol-3-yl)-ethyl]-chelidonamide, N-[2-(5-methoxy-indol-3-yl)-ethyl]-comanilamide or N-[2-(5-methoxy-indol-3-yl)-ethyl]-2-methoxy-commenamide in saline (0.1 ml/10 g body weight), or saline alone. Fifteen minutes later the mice received a dose of 50 mg/kg of hexobarbital-Na intravenously. Sleep time was measured in each animal as the time from loss to recovery of the righting reflex.

[6] = 0.05 nM 125I-melatonin, 25° C., 3 hours, read-out: MT-1 receptor binding IC50
[7] = 0.05 nM 125I-melatonin, 25° C., 3 hours, read-out: MT-1 receptor binding KI
[8] = 0.1 nM 125I-melatonin, 30 min, read-out: MT-3 receptor binding IC50
[9] = 0.1 nM 125I-melatonin, 30 min, read-out: MT-3 receptor binding KI

T4 sequence (P28222 whole entry): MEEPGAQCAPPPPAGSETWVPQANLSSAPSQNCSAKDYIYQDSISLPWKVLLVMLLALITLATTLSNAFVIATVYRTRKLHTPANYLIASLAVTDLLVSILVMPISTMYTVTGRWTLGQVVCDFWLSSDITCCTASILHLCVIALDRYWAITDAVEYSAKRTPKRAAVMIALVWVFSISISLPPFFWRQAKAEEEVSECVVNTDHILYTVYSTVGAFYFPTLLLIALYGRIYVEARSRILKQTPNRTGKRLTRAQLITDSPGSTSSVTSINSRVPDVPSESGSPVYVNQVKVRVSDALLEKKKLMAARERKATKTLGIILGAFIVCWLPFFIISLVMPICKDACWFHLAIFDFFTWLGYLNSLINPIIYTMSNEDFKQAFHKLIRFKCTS
T1 sequence (P48039 whole entry): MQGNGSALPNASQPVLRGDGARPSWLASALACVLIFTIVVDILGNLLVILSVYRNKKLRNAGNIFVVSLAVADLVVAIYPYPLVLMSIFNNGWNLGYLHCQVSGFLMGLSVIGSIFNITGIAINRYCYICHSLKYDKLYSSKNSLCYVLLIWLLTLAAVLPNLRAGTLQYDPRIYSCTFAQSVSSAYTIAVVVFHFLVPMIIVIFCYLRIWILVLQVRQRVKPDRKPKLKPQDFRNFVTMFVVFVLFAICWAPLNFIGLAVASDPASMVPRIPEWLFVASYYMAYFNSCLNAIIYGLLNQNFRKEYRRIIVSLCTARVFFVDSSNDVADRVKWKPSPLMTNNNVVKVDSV

Compound	IC50 [1, 6] [nM]	Ki [1, 7] [nM]	inhibition at 10 µM ([1]; 10 μM, 0.05 nM 125I-melatonin) [%]	IC50 [2, 8] [nM]	Ki [2, 9] [nM]	inhibition at 10 µM ([2]; 10 μM, 0.1 nM 125I-melatonin) [%]	affinity to 5-HT1A [3]	IC50 ([3]; read-out: 5-HT1A IC50) [nM]	Ki ([3]; read-out: 5-HT1A KI) [nM]	affinity to 5-HT1B [4]	effect on hexobarbital-Na narcosis time [5]	Changes (%) vs. Vehicle (sleep time) [5]	Mean Sleep Time-Treatment (min) ± SE [5] [min]	IC50 ([4]; read-out: 5-HT1B IC50) [nM]	Ki ([4]; read-out: 5-HT1B KI) [nM]	affinity to MT-1 [1]	affinity to MT-3 [2]	further results
COc1ccc2[nH]cc(CCNC(=O)c3cc(=O)cc(C(=O)O)o3)c2c1 [N-[2-5-methoxy-indol-3-yl)-ethyl]-chelidonamide]	2470	1280	80	2200	2200	86	moderate affinity	1030	580	moderate affinity	moderately increased the hexobarbital-Na narcosis time	+54%	12.37 ± 1.85					
COc1ccc2[nH]cc(CCNC(=O)c3cc(=O)c(OC)co3)c2c1 [N-[2-(5-methoxy-indol-3-yl)-ethyl]-2-methoxy-commenamide]	2130	1110	76	230	220	99		1930	1100			−21%	7.70 ± 1.24	5440	5160			
COc1ccc2[nH]cc(CCNC(=O)c3cc(=O)cco3)c2c1 [N-[2-(5-methoxy-indol-3-yl)-ethyl]-comanilamide]	42	22	98	310	300	100		1950	1110	moderate affinity	moderately increased the hexobarbital-Na narcosis time	+49%	17.52 ± 3.07	2140	2030	high affinity	high affinity	
COc1ccc2[nH]cc(CCNC(=O)c3cc(=O)c(O)co3)c2c1 [N-[2-(5-methoxy-indol-3-yl)-ethyl]-commenamide]							moderate affinity				significantly increased the hexobarbital-Na narcosis time	+88%	17.13 ± 8.06			high affinity	high affinity	IC50 [1]: 24 nM; Ki [1]: 13 nM; inhibition at 10 µM [1]: 99%; IC50 [2]: 800 nM; Ki [2]: 780 nM; inhibition at 10 µM [2]: 98%; IC50 [3]: 680 nM; Ki [3]: 390 nM; IC50 [4]: 3910 nM; Ki [4]: 3710 nM
COc1ccc2[nH]cc(CCNC(=O)c3ccc(=O)oc3)c2c1 [N-[2-(5-methoxy-indol-3-yl)-ethyl]-coumalylamide]	750	390	89	980	960	95		1970	650	moderate affinity	significantly increased the hexobarbital-Na narcosis time	+194%	23.58 ± 3.19	1640	1550			

— patent publication US9101613B2, “Methods for treating neurological disease” (Neurim Pharmaceuticals (1991) Ltd., priority 2006, dated 2015)
